Patent publication US20100178277A1, “METHODS AND COMPOSITIONS FOR STIMULATING CELLS” (MEDIVATION NEUROLOGY, INC., priority 2007, published 2010)

Columns and labels:
[1] = system: primary rat cortical neurons; experiment: Neurite outgrowth of primary rat cortical neurons cultured with dimebon; type: cell-based; settings: low concentrations (picomolar and nanomolar); 3 days growth; FIG. 1
Experimental: (§1) Standard methods were used to isolate cortical neurons and spinal motor neurons. For the isolation of primary rat cortical neurons, the fetal brain from a pregnant rat at 17 days of gestation was prepared in Leibovitz's medium (L15; Gibco). The cortex was dissected out, and the meninges were removed. Trypsin (Gibco) was used to dissociate cortical neurons for 30 minutes at 37° C. with DNAse I. The cells were triturated in a 10 mL pipette in Dulbecco's Modified Eagle Media (“DMEM”; Gibco) with 10% Fetal Bovine Serum (“FBS”) (Gibco) and centrifuged at 350×g for 10 minutes at room temperature. The cells were suspended in Neurobasal medium supplemented with 2% B27 (Gibco) and 0.5 mM L-glutamine (Gibco). […] The results were expressed as mean (s.e.m.). […]
(§2) Primary neuronal cultures were prepared from rat fetal tissue on the gestation days indicated from the cortex (day 17), hippocampus (day 19) or spine (day 15). […] Neurite length was calculated using Image-Pro Plus. […] Mitochondrial effects were assessed with primary rat hippocampal cells treated with Dimebon or vehicle and 0.25 μM ionomycin. Dimebon's effects on JC-1 mitochondrial staining was also assessed in ionomycin-treated human neuroblastoma cells (SK—N—SH). Mitochondrial accumulation of JC-1 was assessed by fluorescence microscopy.

[2] = system: primary rat hippocampal neurons; experiment: Neurite outgrowth of primary rat hippocampal neurons cultured with dimebon; type: cell-based
Experimental: To isolate hippocampal neurons, a female rat of 19 days gestation was killed by cervical dislocation, and the fetuses were removed from the uterus. Their brains were removed and placed in ice-cold medium of Leibovitz (L15, Gibco, Invitrogen). Meninges were carefully removed, and the hippocamps were dissected out. The hippocampal neurons were dissociated by trypsinization for 30 minutes at 37° C. (Trypsin-EDTA; Gibco) in the presence of DNAse I (Roche; Meylan). The reaction was stopped by the addition of DMEM (Gibco) cell culture medium with 10% of FBS (Gibco). The suspension was triturated with a 10-ml pipette using a needle syringe 21G and centrifuged at 350×g for 10 minutes at room temperature. The resulting pellet is resuspended in culture medium containing Neurobasal medium (Gibco) supplemented with 2% B27 supplement (Gibco) and 2 mM of glutamine (Gibco). Viable cells were counted in a Neubauer cytometer using the trypan blue exclusion test (Sigma) and seeded on the basis of 30,000 cells per Petri dish (Nunc) precoated with poly-L-lysine. Cells were allowed to adhere for two hours and maintained in a humidified incubator at 37° C. in 5% CO2-95% air atmosphere. After adhesion, a vehicle control or dimebon was added at different concentrations to the medium. BDNF (1.85 nM) was used as a positive control for neurite growth. After treatment, cultures were washed in phosphate-buffered saline (PBS, Gibco) and fixed in glutaraldehyde 2.5% in PBS. Cells were fixed after 3 days growth. Several pictures (˜80) of cells with neurites without any branching were taken per condition with a camera (Coolpix 995; Nikon) fixed on microscope (Nikon, objective 40×). The length measurements were made by analysis of the pictures using software from Image-Pro Plus (France). The results were expressed as mean (s.e.m.). Statistical analysis of the data was performed using one way analysis of variance (ANOVA). […]
The effect of Dimebon (100 nM) on neurite outgrowth using primary hippocampal neurons was evaluated by measuring neurite length (expressed % of control, FIG. 5A) and number of neurites per neuron (FIG. 5B). The effects of vehicle, Dimebon and BDNF (50 ng/mL) were determined after incubations of 24 hours, 48 hours and 72 hours. […]
as §2

[3] = system: primary rat spinal motor neurons; experiment: Neurite outgrowth of primary rat spinal motor neurons cultured with dimebon; type: cell-based; settings: picomolar and nanomolar concentrations; FIG. 4
Experimental: as §1, §2

[4] = system: BrdU positive cells/neurons in the hippocampus and dentate gyrus; experiment: Neurogenesis in healthy rats: BrdU / NeuN immunohistochemistry of hippocampus and dentate gyrus; type: in vivo, Wistar rats; settings: 14 days
Excerpt: Wistar rats were obtained from Charles River or Harlan Winkelmann (Germany). Male rats were approximately 3 months old upon arrival at the animal colony. Animals were kept in an animal facility under standardized conditions and according to the animal welfare regulations of the Ministry of Science of the Austrian government. A record of bodyweights was maintained. The animals were allowed to acclimatize for at least one week prior to any experimental manipulations. Twelve rats per group were maintained on a 12 hour light/dark cycle. Three backup animals were maintained in order to compensate for animal loss. All rats were housed in groups of four per cage and had ad libitum access to food and water. Rats were randomly allocated to four different treatment groups receiving intraperitoneal (i.p.) 5-bromo-2-deoxyuridine (BrdU, Sigma #B9285, 50 mg/kg body weight (b.w.)) and either (i) Dimebon at 10 mg/kg b.w./twice a day; (ii) Dimebon at 30 mg/kg b.w./twice a day; (iii) Dimebon at 60 mg/kg b.w./twice a day; or (iv) 0.2 mL vehicle (saline) twice a day. Treatment with BrdU, a synthetic nucleoside analog of thymidine, is commonly used to detect proliferating cells in living tissues such as the brain. Dimebon and vehicle were administered orally twice a day in a volume of 0.2 mL. BrdU was administered every other day. The daily Dimebon or vehicle treatment was performed several minutes before BrdU treatment. On day 14, animals were sacrificed approximately four hours after the last Dimebon treatment and one day after the last BrdU treatment. Diluted dimebon was prepared fresh daily. At sacrifice, the rats were sedated using standard anesthesia. After transcardial perfusion with phosphate buffered saline (PBS) followed by 4% Paraformaldehyde/PBS, the brain from each rat was carefully removed, post-fixed in 4% Paraformaldehyde/PBS for one hour, transferred to 15% sucrose for cryoprotection, and shock-frozen in liquid isopentane. Brains were stored at −80° C. until cryo-cutting. The brains were cut sagittally using a cryotome and stored at −20° C. until staining. Five layers were cut with 10 sections at 20 micrometers per layer with an interlayer slice gap of 100 micrometers. Standard Cresyl-Violett staining was performed on two consecutive slices per animal. BrdU immunohistochemistry was quantified to provide a morphological overview of cell division. For the evaluation of BrdU positive cells/neurons, sections were processed by double-incubation with mouse anti-Neuronal Nuclei (NeuN) monoclonal antibody (Chemicon) and anti-BrdU (Abcam). One section per layer was treated in a three-day double-incubation with mouse anti-Neuronal Nuclei (NeuN) monoclonal antibody 1:800 (Chemicon, Hofheim. Germany) and anti-BrdU (sheep polyclonal to BrdU) 1:500 (Abcam, Cambridge, UK). The secondary antibodies were a Cy-3-conjugated pure affine goat anti-mouse IgG (H+L) 1:200 (Jackson ImmunoResearch, Cambridgeshire, UK) and a Cy 2-conjugated pure affine F(ab′)2 fragment of donkey anti-sheep IgG (H+L) 1:100 (Jackson ImmunoResearch, Cambridgeshire, UK). Briefly, the anti-NeuN antibody was incubated overnight at 4° C., the Cy3 antibody was incubated the next day for one hour at room temperature, followed by the anti-BrdU antibody overnight at 4° C. and the Cy2 antibody for one hour at room temperature. To open the cell surfaces before the BrdU incubation, slices were treated with 2N HCl for 15 minutes at 40° C. and then washed for 20 minutes in a methanol mixture (60 ml methanol, 2 ml H2O2, and 0.6 ml Triton X) to block endogenous peroxidases. Niss1 staining was used as an overview staining. Tiled images of the sagittal slice including the cortex and the hippocampus were recorded at 200-fold magnification. Each single image used a PCO PixelFly camera mounted on a NikonE800 microscope equipped with an software controlled (StagePro) automatic table. Both fluorescent colors, red for NeuN and green for BrdU, were recorded separately. For quantification, the images were merged. […]

[5] = system: primary rat hippocampal cells; experiment: Mitochondrial JC-1 staining in ionomycin-treated primary rat hippocampal cells; type: cell-based; settings: Dimebon 0.25 nM and 2.5 nM; 0.25 μM ionomycin; compared with vehicle treatment
Experimental: (§3) Primary neuronal cultures were prepared from rat fetal tissue on the gestation days indicated from the cortex (day 17), hippocampus (day 19) or spine (day 15). Neurons were dissociated by trypsinization in the presence of DNAseI and trituration and cultured in Neurobasal (Gibco) medium supplemented with 2% B27 (Gibco), 0.5 mM L-Glutamine. Cells were plated on poly L-lysine coated plates, allowed to adhere and maintained at 37° C. in 5% CO2-95% air and then test compound was added for a period of 3 days. Cultures were fixed using 2.5% glutaraldehyde. Approximately 80 digital images were taken per condition. Neurite length was calculated using Image-Pro Plus. Each analysis was performed with two separate culture studies. Dimebon was tested at concentrations of 0.01-500 nM and BDNF at 50 ng/mL. Mitochondrial effects were assessed with primary rat hippocampal cells treated with Dimebon or vehicle and 0.25 μM ionomycin. Dimebon's effects on JC-1 mitochondrial staining was also assessed in ionomycin-treated human neuroblastoma cells (SK—N—SH). Mitochondrial accumulation of JC-1 was assessed by fluorescence microscopy.

[6] = system: human neuroblastoma cells (SK—N—SH); experiment: Mitochondrial JC-1 staining in ionomycin-treated SK-N-SH cells; type: cell-based
Experimental: as §3

`Cc1ccc2c(c1)c1c(n2CCc2ccc(C)nc2)CCN(C)C1.Cl.Cl` [Dimebon, 2,8-dimethyl-5-(2-(6-methyl-3-pyridyl)-ethyl)-2,3,4,5-tetrahydro-1H-pyrido[4,3-b]indole dihydrochloride] was tested, and the “neurite outgrowth of primary rat cortical neurons” value [1] was “stimulated”, the “effect on neurite length and number of neurites per neuron relative to BDNF” value ([2]; Dimebon 100 nM vs BDNF 50 ng/mL, 24, 48, 72 hours) was “comparable” and the neurite length ([2]; Dimebon 100 nM, incubations of 24, 48 and 72 hours, compared to vehicle, FIG. 5A) was “increased”. The “number of neurites per neuron” value ([2]; Dimebon 100 nM, incubations of 24, 48 and 72 hours, compared to vehicle, FIG. 5B) was “increased”, the “neurite outgrowth of primary rat hippocampal neurons” value ([2]; picomolar and nanomolar concentrations, 3 days growth, FIG. 3) was “stimulated” and the “neurite outgrowth of primary rat spinal motor neurons” value [3] was “stimulated”. The “BrdU positive progenitor cells in the dentate gyrus” value ([4]; 30 mg/kg Dimebon vs vehicle, p=0.05, FIG. 7A) was “significant increase”, the “BrdU positive progenitor cells in the hippocampus” value ([4]; 60 mg/kg Dimebon vs vehicle-treated group, p=0.05, FIG. 6A) was “significant increase” and the “BrdU positive neurons (NeuN and BrdU IR) in the hippocampus” value ([4]; 60 mg/kg Dimebon vs vehicle-treated group, p=0.05, FIG. 6B) was “significant increase”. For the same compound, the “BrdU positive progenitor cells in the dentate gyrus” value ([4]; 60 mg/kg Dimebon vs vehicle-treated group, p=0.05, FIG. 7A) was “significant increase”, the “BrdU positive neurons (NeuN and BrdU IR) in the dentate gyrus” value ([4]; 60 mg/kg Dimebon vs vehicle-treated group, p=0.05, FIG. 7B) was “significant increase” and the “total number of BrdU staining cells in the hippocampus” value ([4]; rats, oral twice a day, FIG. 6A) was “increases”. For the same compound, the “number of BrdU staining neurons in the hippocampus” value ([4]; rats, oral twice a day, FIG. 6B) was “increases”, the “total number of BrdU staining cells in the dentate gyrus” value ([4]; rats, oral twice a day, FIG. 7A) was “increases” and the “number of BrdU staining neurons in the dentate gyrus” value ([4]; rats, oral twice a day, FIG. 7B) was “increases”. For the same compound, the “mitochondrial JC-1 staining” value [5] was “preserved” and the “mitochondrial JC-1 staining” value [6] was “preserved”.
